Values of other authors, collected in patent US20240401154A1, “SYNTHESIS AND PREPARATION OF ULTRA-LOW VISCOSITY AND HIGH MAGNETIC SUSCEPTIBILITY MAGNETIC IONIC LIQUIDS” (priority 2023, published 2024).
Read-outs that look alike come from different tables or passages of the source. Marks after values point to notes of the source that are not given here.

Legend:
[1] = previously studied MILs, Table 2, cited from earlier work
[2] = previously referenced MILs, cited from earlier work
[3] = SQUID magnetometer; previously studied MILs, Table 2; cited from earlier work
[4] = GC-FID; previously referenced MILs; cited from earlier work
[5] = acetone, chloroform, dichloromethane, acetonitrile, methanol, ethanol, diethyl ether, ethyl acetate, isopropanol at 20% (w/v)
[6] = hexane, heptane, benzene, toluene at 10% (w/v)
[7] = hexane, heptane, benzene, toluene at 20% (w/v)

| SMILES | Viscosity ([1]; reported at 19.9° C.) | Solubility [2, 5] | Solubility [2, 6] | Solubility ([2]; water at 0.01% (w/v)) | Effective magnetic moment [3] | Onset of MIL volatilization (° C.)^1 [4] [°C] | Solubility [2, 7] | Viscosity ([1]; reported at 20.0° C.) |
| --- | --- | --- | --- | --- | --- | --- | --- | --- |
| CCCCCCCCN(CCCCCCCC)C(=O)COCC(=O)N(CCCCCCCC)CCCCCCCC.CCCCCCCCN(CCCCCCCC)C(=O)COCC(=O)N(CCCCCCCC)CCCCCCCC.O=C(C=C([O-])C(F)(F)F)C(F)(F)F.O=C(C=C([O-])C(F)(F)F)C(F)(F)F.O=C(C=C([O-])C(F)(F)F)C(F)(F)F.O=C(C=C([O-])C(F)(F)F)C(F)(F)F.O=C(C=C([O-])C(F)(F)F)C(F)(F)F.O=C(C=C([O-])C(F)(F)F)C(F)(F)F.[Co+2].[Co+2].[Co+2] [[Co(TODGA)2][Co(hfacac)3]2] | 28,310^e | S^b (soluble in acetone, chloroform, dichloromethane, acetonitrile, methanol, ethanol, diethyl ether, ethyl acetate, and isopropanol at 20% (w/v).) | S^a (soluble in hexane, heptane, benzene, and toluene at 10% (w/v).) | S^f (insoluble in water at 0.01% (w/v).) | 13.34^f | 231 |  |  |
| CCCCCCCCN(CCCCCCCC)C(=O)COCC(=O)N(CCCCCCCC)CCCCCCCC.CCCCCCCCN(CCCCCCCC)C(=O)COCC(=O)N(CCCCCCCC)CCCCCCCC.CCCCCCCCN(CCCCCCCC)C(=O)COCC(=O)N(CCCCCCCC)CCCCCCCC.O=C(C=C([O-])C(F)(F)F)C(F)(F)F.O=C(C=C([O-])C(F)(F)F)C(F)(F)F.O=C(C=C([O-])C(F)(F)F)C(F)(F)F.O=C(C=C([O-])C(F)(F)F)C(F)(F)F.O=C(C=C([O-])C(F)(F)F)C(F)(F)F.O=C(C=C([O-])C(F)(F)F)C(F)(F)F.O=C(C=C([O-])C(F)(F)F)C(F)(F)F.O=C(C=C([O-])C(F)(F)F)C(F)(F)F.O=C(C=C([O-])C(F)(F)F)C(F)(F)F.O=C(C=C([O-])C(F)(F)F)C(F)(F)F.O=C(C=C([O-])C(F)(F)F)C(F)(F)F.O=C(C=C([O-])C(F)(F)F)C(F)(F)F.[Dy+3].[Dy+3].[Dy+3].[Dy+3] [[Dy(TODGA)3][Dy(hfacac)4]3] | 9,210^e | S^b (soluble in acetone, chloroform, dichloromethane, acetonitrile, methanol, ethanol, diethyl ether, ethyl acetate, and isopropanol at 20% (w/v).) | S^a (soluble in hexane, heptane, benzene, and toluene at 10% (w/v).) | S^f (insoluble in water at 0.01% (w/v).) | 20.00^f | 175 | S^c (soluble in hexane, heptane, benzene, and toluene at 20% (w/v).) |  |
| CCCCCCCCN(CCCCCCCC)C(=O)COCC(=O)N(CCCCCCCC)CCCCCCCC.CCCCCCCCN(CCCCCCCC)C(=O)COCC(=O)N(CCCCCCCC)CCCCCCCC.CCCCCCCCN(CCCCCCCC)C(=O)COCC(=O)N(CCCCCCCC)CCCCCCCC.O=C(C=C([O-])C(F)(F)F)C(F)(F)F.O=C(C=C([O-])C(F)(F)F)C(F)(F)F.O=C(C=C([O-])C(F)(F)F)C(F)(F)F.O=C(C=C([O-])C(F)(F)F)C(F)(F)F.O=C(C=C([O-])C(F)(F)F)C(F)(F)F.O=C(C=C([O-])C(F)(F)F)C(F)(F)F.O=C(C=C([O-])C(F)(F)F)C(F)(F)F.O=C(C=C([O-])C(F)(F)F)C(F)(F)F.O=C(C=C([O-])C(F)(F)F)C(F)(F)F.O=C(C=C([O-])C(F)(F)F)C(F)(F)F.O=C(C=C([O-])C(F)(F)F)C(F)(F)F.O=C(C=C([O-])C(F)(F)F)C(F)(F)F.[Gd+3].[Gd+3].[Gd+3].[Gd+3] [[Gd(TODGA)3][Gd(hfacac)4]3] | 13,640^e | S^b (soluble in acetone, chloroform, dichloromethane, acetonitrile, methanol, ethanol, diethyl ether, ethyl acetate, and isopropanol at 20% (w/v).) | S^a (soluble in hexane, heptane, benzene, and toluene at 10% (w/v).) | S^f (insoluble in water at 0.01% (w/v).) | 14.90^f | 183 | S^c (soluble in hexane, heptane, benzene, and toluene at 20% (w/v).) |  |
| CCCCCCCCN(CCCCCCCC)C(=O)COCC(=O)N(CCCCCCCC)CCCCCCCC.CCCCCCCCN(CCCCCCCC)C(=O)COCC(=O)N(CCCCCCCC)CCCCCCCC.CCCCCCCCN(CCCCCCCC)C(=O)COCC(=O)N(CCCCCCCC)CCCCCCCC.O=C(C=C([O-])C(F)(F)F)C(F)(F)F.O=C(C=C([O-])C(F)(F)F)C(F)(F)F.O=C(C=C([O-])C(F)(F)F)C(F)(F)F.O=C(C=C([O-])C(F)(F)F)C(F)(F)F.O=C(C=C([O-])C(F)(F)F)C(F)(F)F.O=C(C=C([O-])C(F)(F)F)C(F)(F)F.O=C(C=C([O-])C(F)(F)F)C(F)(F)F.O=C(C=C([O-])C(F)(F)F)C(F)(F)F.O=C(C=C([O-])C(F)(F)F)C(F)(F)F.O=C(C=C([O-])C(F)(F)F)C(F)(F)F.O=C(C=C([O-])C(F)(F)F)C(F)(F)F.O=C(C=C([O-])C(F)(F)F)C(F)(F)F.[Ho+3].[Ho+3].[Ho+3].[Ho+3] [[Ho(TODGA)3][Ho(hfacac)4]3] | 10,530^e | S^b (soluble in acetone, chloroform, dichloromethane, acetonitrile, methanol, ethanol, diethyl ether, ethyl acetate, and isopropanol at 20% (w/v).) | S^a (soluble in hexane, heptane, benzene, and toluene at 10% (w/v).) | S^f (insoluble in water at 0.01% (w/v).) | 20.86^f | 192 | S^c (soluble in hexane, heptane, benzene, and toluene at 20% (w/v).) |  |
| CCCCCCCCN(CCCCCCCC)C(=O)COCC(=O)N(CCCCCCCC)CCCCCCCC.CCCCCCCCN(CCCCCCCC)C(=O)COCC(=O)N(CCCCCCCC)CCCCCCCC.O=C(C=C([O-])C(F)(F)F)C(F)(F)F.O=C(C=C([O-])C(F)(F)F)C(F)(F)F.O=C(C=C([O-])C(F)(F)F)C(F)(F)F.O=C(C=C([O-])C(F)(F)F)C(F)(F)F.O=C(C=C([O-])C(F)(F)F)C(F)(F)F.O=C(C=C([O-])C(F)(F)F)C(F)(F)F.[Ni+2].[Ni+2].[Ni+2] [[Ni(TODGA)2][Ni(hfacac)3]2] | 33,830^e | S^b (soluble in acetone, chloroform, dichloromethane, acetonitrile, methanol, ethanol, diethyl ether, ethyl acetate, and isopropanol at 20% (w/v).) | S^a (soluble in hexane, heptane, benzene, and toluene at 10% (w/v).) | S^f (insoluble in water at 0.01% (w/v).) | 11.79^f | 235 |  |  |
| CCCCCCCCCCCCCC[P+](CCCCCC)(CCCCCC)CCCCCC.CCCCCCCCCCCCCC[P+](CCCCCC)(CCCCCC)CCCCCC.[Cl-].[Cl-].[Cl-].[Cl-].[Co+2] [[P66614]2[CoCl4]] |  |  |  |  | 4.45^f |  |  | 123,500^d |
| CCCCCCCCCCCCCC[P+](CCCCCC)(CCCCCC)CCCCCC.CCCCCCCCCCCCCC[P+](CCCCCC)(CCCCCC)CCCCCC.[Cl-].[Cl-].[Cl-].[Cl-].[Mn+2] [[P66614]2[MnCl4]] |  |  |  |  | 5.81^f |  |  | 112,300^d |
| CCCCCCCCCCCCCC[P+](CCCCCC)(CCCCCC)CCCCCC.CCCCCCCCCCCCCC[P+](CCCCCC)(CCCCCC)CCCCCC.CCCCCCCCCCCCCC[P+](CCCCCC)(CCCCCC)CCCCCC.[Cl-].[Cl-].[Cl-].[Cl-].[Cl-].[Cl-].[Gd+3] [[P66614]3[GdCl6]] |  |  |  |  | 7.86^f |  |  | 28,230^d |
